According to the NIST ThermoML archive (doi:10.1021/je400055v):

Experiment: xn = mol fraction of the nth substance listed
Conditions: Liquid, Vibrating tube method

CCCCCCCCCCC [undecane] + CCCCCCC
Conditions | mass density [kg/m3]
343.03 K, 20000 kPa, x2 = 0.7482 | 682.7
343.03 K, 21000 kPa, x2 = 0.7482 | 683.6
343.03 K, 22000 kPa, x2 = 0.7482 | 684.5
343.03 K, 23000 kPa, x2 = 0.7482 | 685.4
343.03 K, 24000 kPa, x2 = 0.7482 | 686.2
343.03 K, 25000 kPa, x2 = 0.7482 | 687.1
343.06 K, 1010 kPa, x2 = 0.2346 | 693.6
343.06 K, 2010 kPa, x2 = 0.2346 | 694.6
343.06 K, 3010 kPa, x2 = 0.2346 | 695.7
343.06 K, 4011 kPa, x2 = 0.2346 | 696.7
343.06 K, 5011 kPa, x2 = 0.2346 | 697.7
343.06 K, 6011 kPa, x2 = 0.2346 | 698.7
343.06 K, 7012 kPa, x2 = 0.2346 | 699.7
343.06 K, 8012 kPa, x2 = 0.2346 | 700.6
343.06 K, 9012 kPa, x2 = 0.2346 | 701.6
343.06 K, 10013 kPa, x2 = 0.2346 | 702.5
343.06 K, 11013 kPa, x2 = 0.2346 | 703.5
343.06 K, 12014 kPa, x2 = 0.2346 | 704.4
343.06 K, 13014 kPa, x2 = 0.2346 | 705.3
343.06 K, 14014 kPa, x2 = 0.2346 | 706.2
343.06 K, 15015 kPa, x2 = 0.2346 | 707
343.06 K, 16016 kPa, x2 = 0.2346 | 707.9
343.06 K, 17016 kPa, x2 = 0.2346 | 708.8
343.06 K, 18017 kPa, x2 = 0.2346 | 709.6
343.06 K, 19017 kPa, x2 = 0.2346 | 710.4
343.06 K, 20018 kPa, x2 = 0.2346 | 711.3
343.06 K, 21051 kPa, x2 = 0.2346 | 712.1
343.06 K, 22053 kPa, x2 = 0.2346 | 712.9
343.06 K, 23055 kPa, x2 = 0.2346 | 713.7
343.06 K, 24057 kPa, x2 = 0.2346 | 714.5
343.06 K, 25059 kPa, x2 = 0.2346 | 715.2
352.9 K, 1001 kPa, x2 = 0.9511 | 636.9
352.9 K, 2000 kPa, x2 = 0.9511 | 638.4
352.9 K, 3000 kPa, x2 = 0.9511 | 639.8
352.9 K, 4000 kPa, x2 = 0.9511 | 641.1
352.9 K, 5000 kPa, x2 = 0.9511 | 642.5
352.9 K, 6000 kPa, x2 = 0.9511 | 643.8
352.9 K, 7000 kPa, x2 = 0.9511 | 645.1
352.9 K, 8000 kPa, x2 = 0.9511 | 646.4
352.9 K, 9000 kPa, x2 = 0.9511 | 647.7
352.9 K, 10000 kPa, x2 = 0.9511 | 648.9
352.9 K, 11000 kPa, x2 = 0.9511 | 650.1
352.9 K, 12000 kPa, x2 = 0.9511 | 651.3
352.9 K, 13000 kPa, x2 = 0.9511 | 652.5
352.9 K, 14001 kPa, x2 = 0.9511 | 653.6
352.9 K, 15001 kPa, x2 = 0.9511 | 654.8
352.9 K, 16000 kPa, x2 = 0.9511 | 655.9
352.9 K, 17001 kPa, x2 = 0.9511 | 657
352.9 K, 18001 kPa, x2 = 0.9511 | 658
352.9 K, 19000 kPa, x2 = 0.9511 | 659.1
352.9 K, 20000 kPa, x2 = 0.9511 | 660.1
352.9 K, 21001 kPa, x2 = 0.9511 | 661.2
352.9 K, 22000 kPa, x2 = 0.9511 | 662.2
352.9 K, 23001 kPa, x2 = 0.9511 | 663.2
352.9 K, 24000 kPa, x2 = 0.9511 | 664.1
352.9 K, 25000 kPa, x2 = 0.9511 | 665.1
352.96 K, 1001 kPa, x2 = 0.05 | 694
352.96 K, 2001 kPa, x2 = 0.05 | 695.1
352.96 K, 2001 kPa, x2 = 0.5063 | 672.2
352.96 K, 3000 kPa, x2 = 0.05 | 696.1
352.96 K, 3000 kPa, x2 = 0.5063 | 673.4
352.96 K, 4000 kPa, x2 = 0.05 | 697.2
352.96 K, 4000 kPa, x2 = 0.5063 | 674.6
352.96 K, 5000 kPa, x2 = 0.05 | 698.2
352.96 K, 5000 kPa, x2 = 0.5063 | 675.7
352.96 K, 6000 kPa, x2 = 0.05 | 699.2
352.96 K, 6000 kPa, x2 = 0.5063 | 676.8
352.96 K, 7000 kPa, x2 = 0.05 | 700.2
352.96 K, 7000 kPa, x2 = 0.5063 | 677.9
352.96 K, 8001 kPa, x2 = 0.05 | 701.2
352.96 K, 8001 kPa, x2 = 0.5063 | 679
352.96 K, 9000 kPa, x2 = 0.05 | 702.2
352.96 K, 9000 kPa, x2 = 0.5063 | 680.1
352.96 K, 10000 kPa, x2 = 0.05 | 703.2
352.96 K, 10000 kPa, x2 = 0.5063 | 681.2
352.96 K, 11000 kPa, x2 = 0.05 | 704.1
352.96 K, 11000 kPa, x2 = 0.5063 | 682.2
352.96 K, 12000 kPa, x2 = 0.05 | 705.1
352.96 K, 12000 kPa, x2 = 0.5063 | 683.2
352.96 K, 13000 kPa, x2 = 0.05 | 706
352.96 K, 13000 kPa, x2 = 0.5063 | 684.2
352.96 K, 14000 kPa, x2 = 0.05 | 706.9
352.96 K, 14000 kPa, x2 = 0.5063 | 685.2
352.96 K, 15000 kPa, x2 = 0.05 | 707.8
352.96 K, 15000 kPa, x2 = 0.5063 | 686.2
352.96 K, 16000 kPa, x2 = 0.05 | 708.7
352.96 K, 16000 kPa, x2 = 0.5063 | 687.2
352.96 K, 17000 kPa, x2 = 0.05 | 709.6
352.96 K, 17001 kPa, x2 = 0.5063 | 688.1
352.96 K, 18000 kPa, x2 = 0.05 | 710.4
352.96 K, 18000 kPa, x2 = 0.5063 | 689.1
352.96 K, 19000 kPa, x2 = 0.05 | 711.3
352.96 K, 19000 kPa, x2 = 0.5063 | 690
